Key:
BRD4 (BDI_K57-E168) = BRD4 (BDI_K57-E168) (Homo sapiens (Human), UniProt O60885); experiment: TR-FRET bromodomain binding assay, BRD4 first bromodomain; conditions: His-tagged BD1, Alexa647-labeled probe 100 nM
Procedure, shortened: (§1)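 His-tagged BRD4 BD1 (K57-E168) or BD2 at 8 nM, 1 nM Eu-anti-His antibody and Alexa647 BET-inhibitor probe (100 nM for BDI, 30 nM for BDII) in pH 6.0 phosphate buffer, 2% DMSO, compound 50 μM-0.85 nM; 1 h at RT, TR-FRET read. IC50 by 4-parameter fit, Ki from probe Kd and concentration.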

BRD4 (BDII_E352-M457) = BRD4 (BDII_E352-M457) (Homo sapiens (Human), UniProt O60885); experiment: TR-FRET bromodomain binding assay, BRD4 second bromodomain; conditions: His-tagged BD2, Alexa647-labeled probe 30 nM
Procedure, shortened: as §1

Question: How did the Ki (BRD4 (BDI_K57-E168)) turn out when `CN(C)CCCOc1ccc(CNc2cccc(Oc3ccc(S(C)(=O)=O)cc3-c3cn(C)c(=O)c4[nH]ccc34)c2)cc1` [Example 74, 4-{2-[3-({4-[3-(dimethylamino)propoxy]benzyl}amino)phenoxy]-5-(methylsulfonyl)phenyl}-6-methyl-1,6-dihydro-7H-pyrrolo[2,3-c]pyridin-7-one] was run?
Answer: 4.3 nM

Question: What about the Ki (BRD4 (BDII_E352-M457)) of the same compound?
Answer: 1.4 nM

Question: Which results are given for `Cn1cc(-c2cc(S(C)(=O)=O)ccc2Oc2ccc(F)cc2F)c2cc(CN3CCN(c4nccs4)CC3)[nH]c2c1=O` [Example 114, 4-[2-(2,4-difluorophenoxy)-5-(methylsulfonyl)phenyl]-6-methyl-2-{[4-(1,3-thiazol-2-yl)piperazin-1-yl]methyl}-1,6-dihydro-7H-pyrrolo[2,3-c]pyridin-7-one]?
Answer: Ki (BRD4 (BDI_K57-E168)): 6.93 nM; Ki (BRD4 (BDII_E352-M457)): 80.7 nM

Question: `CCS(=O)(=O)Nc1cc(-c2cn(C)c(=O)c3[nH]ccc23)c(Oc2ccc(F)cc2F)cc1CN1CCN(C)CC1` [Example 5, N-{4-(2,4-difluorophenoxy)-5-(6-methyl-7-oxo-6,7-dihydro-1H-pyrrolo[2,3-c]pyridin-4-yl)-2-[(4-methylpiperazin-1-yl)methyl]phenyl}ethanesulfonamide] was tested. Which Ki (BRD4 (BDI_K57-E168)) did it give?
Answer: 16 nM

Question: And the Ki (BRD4 (BDII_E352-M457))?
Answer: 1.7 nM

Question: With `Cn1cc(-c2cc(S(C)(=O)=O)ccc2N[C@H]2CC[C@H](NCc3cccs3)CC2)c2cc[nH]c2c1=O` [Example 107, 6-methyl-4-[5-(methylsulfonyl)-2-({trans-4-[(thiophen-2-ylmethyl)amino]cyclohexyl}amino)phenyl]-1,6-dihydro-7H-pyrrolo[2,3-c]pyridin-7-one] as the compound, how does the Ki (BRD4 (BDI_K57-E168)) read?
Answer: 3 nM

Question: And the Ki (BRD4 (BDII_E352-M457))?
Answer: 8.9 nM

Question: Which results are given for `Cn1cc(-c2cc(S(C)(=O)=O)ccc2Oc2ccc(F)cc2F)c2cc(CN3CCOCC3c3ccco3)[nH]c2c1=O` (stereo not drawn) [Example 127, 4-[2-(2,4-difluorophenoxy)-5-(methylsulfonyl)phenyl]-2-{[3-(furan-2-yl)morpholin-4-yl]methyl}-6-methyl-1,6-dihydro-7H-pyrrolo[2,3-c]pyridin-7-one]?
Answer: Ki (BRD4 (BDI_K57-E168)): 15.8 nM; Ki (BRD4 (BDII_E352-M457)): 93.8 nM

Question: With `CN1CCN(CC(=O)N2CCC(Nc3ccc(S(C)(=O)=O)cc3-c3cn(C)c(=O)c4[nH]ccc34)CC2)CC1` [Example 96, 6-methyl-4-[2-({1-[(4-methylpiperazin-1-yl)acetyl]piperidin-4-yl}amino)-5-(methylsulfonyl)phenyl]-1,6-dihydro-7H-pyrrolo[2,3-c]pyridin-7-one] as the compound, how does the Ki (BRD4 (BDI_K57-E168)) read?
Answer: 17 nM

Question: What about the Ki (BRD4 (BDII_E352-M457)) of the same compound?
Answer: 21 nM

Question: What does the source list for `CN(C)CCCOc1ccc(CN2CCC(Nc3ccc(S(C)(=O)=O)cc3-c3cn(C)c(=O)c4[nH]ccc34)CC2)cc1` [Example 90, 4-{2-[(1-{4-[3-(dimethylamino)propoxy]benzyl}piperidin-4-yl)amino]-5-(methylsulfonyl)phenyl}-6-methyl-1,6-dihydro-7H-pyrrolo[2,3-c]pyridin-7-one]?
Answer: Ki (BRD4 (BDI_K57-E168)): 14 nM; Ki (BRD4 (BDII_E352-M457)): 25 nM

Question: Which Ki (BRD4 (BDI_K57-E168)) does the source give for `Cn1cc(-c2cc(S(C)(=O)=O)ccc2Oc2cccc(NCc3ccccc3C#N)c2)c2cc[nH]c2c1=O` [Example 71, 2-[({3-[2-(6-methyl-7-oxo-6,7-dihydro-1H-pyrrolo[2,3-c]pyridin-4-yl)-4-(methylsulfonyl)phenoxy]phenyl}amino)methyl]benzonitrile] here?
Answer: 33 nM

Question: What about the Ki (BRD4 (BDII_E352-M457)) of the same compound?
Answer: 19 nM

Question: Which results are given for `Cn1cc(-c2cc(S(C)(=O)=O)ccc2Oc2cccc(C(=O)NCc3ccc(F)cc3F)c2)c2cc[nH]c2c1=O` [Example 37, N-(2,4-difluorobenzyl)-3-[2-(6-methyl-7-oxo-6,7-dihydro-1H-pyrrolo[2,3-c]pyridin-4-yl)-4-(methylsulfonyl)phenoxy]benzamide]?
Answer: Ki (BRD4 (BDI_K57-E168)): 18 nM; Ki (BRD4 (BDII_E352-M457)): 6 nM

Question: What does the source list for `Cn1cc(-c2cc(S(C)(=O)=O)ccc2NC2CCN(C(=O)CN3CCCC3)CC2)c2cc[nH]c2c1=O` [Example 97, 6-methyl-4-[5-(methylsulfonyl)-2-{[1-(pyrrolidin-1-ylacetyl)piperidin-4-yl]amino}phenyl]-1,6-dihydro-7H-pyrrolo[2,3-c]pyridin-7-one]?
Answer: Ki (BRD4 (BDI_K57-E168)): 10 nM; Ki (BRD4 (BDII_E352-M457)): 28 nM

Question: For `Cn1cc(-c2cc(S(C)(=O)=O)ccc2NC2CCN(S(=O)(=O)c3cccc(C#N)c3)CC2)c2cc[nH]c2c1=O` [Example 105, 3-[(4-{[2-(6-methyl-7-oxo-6,7-dihydro-1H-pyrrolo[2,3-c]pyridin-4-yl)-4-(methylsulfonyl)phenyl]amino}piperidin-1-yl)sulfonyl]benzonitrile], which Ki (BRD4 (BDI_K57-E168)) is on record?
Answer: 7.2 nM

Question: What about the Ki (BRD4 (BDII_E352-M457)) of the same compound?
Answer: 17 nM

Question: Which results are given for `Cn1cc(-c2cc(S(C)(=O)=O)ccc2Oc2cccc(NS(=O)(=O)c3ccccc3C#N)c2)c2cc[nH]c2c1=O` [Example 55, 2-cyano-N-{3-[2-(6-methyl-7-oxo-6,7-dihydro-1H-pyrrolo[2,3-c]pyridin-4-yl)-4-(methylsulfonyl)phenoxy]phenyl}benzenesulfonamide]?
Answer: Ki (BRD4 (BDI_K57-E168)): 6.9 nM; Ki (BRD4 (BDII_E352-M457)): 2.8 nM

Question: `Cn1cc(-c2cc(S(C)(=O)=O)ccc2Oc2ccc(F)cc2F)c2cc(CN3CCCN(c4ccccn4)CC3)[nH]c2c1=O` [Example 126, 4-[2-(2,4-difluorophenoxy)-5-(methylsulfonyl)phenyl]-6-methyl-2-{[4-(pyridin-2-yl)-1,4-diazepan-1-yl]methyl}-1,6-dihydro-7H-pyrrolo[2,3-c]pyridin-7-one] was tested. Which Ki (BRD4 (BDI_K57-E168)) did it give?
Answer: 54.5 nM

Question: And the Ki (BRD4 (BDII_E352-M457))?
Answer: 276 nM

Question: What does the source list for `CCS(=O)(=O)c1ccc(Oc2ccc(F)cc2F)c(-c2cn(C)c(=O)c3[nH]c(-c4ccnn4-c4ccccc4)cc23)c1` [Example 117, 4-[2-(2,4-difluorophenoxy)-5-(ethylsulfonyl)phenyl]-6-methyl-2-(1-phenyl-1H-pyrazol-5-yl)-1,6-dihydro-7H-pyrrolo[2,3-c]pyridin-7-one]?
Answer: Ki (BRD4 (BDI_K57-E168)): 6.09 nM; Ki (BRD4 (BDII_E352-M457)): 3.39 nM

Question: What does the source list for `Cc1noc(C2CCCN2Cc2cc3c(-c4cc(S(C)(=O)=O)ccc4Oc4ccc(F)cc4F)cn(C)c(=O)c3[nH]2)n1` (stereo not drawn) [Example 131, 4-[2-(2,4-difluorophenoxy)-5-(methylsulfonyl)phenyl]-6-methyl-2-{[2-(3-methyl-1,2,4-oxadiazol-5-yl)pyrrolidin-1-yl]methyl}-1,6-dihydro-7H-pyrrolo[2,3-c]pyridin-7-one]?
Answer: Ki (BRD4 (BDI_K57-E168)): 49.7 nM; Ki (BRD4 (BDII_E352-M457)): 165 nM

Question: What does the source list for `Cn1cc(-c2cc(S(C)(=O)=O)ccc2Oc2cccc(C(=O)NCc3cc(F)cc(F)c3)c2)c2cc[nH]c2c1=O` [Example 36, N-(3,5-difluorobenzyl)-3-[2-(6-methyl-7-oxo-6,7-dihydro-1H-pyrrolo[2,3-c]pyridin-4-yl)-4-(methylsulfonyl)phenoxy]benzamide]?
Answer: Ki (BRD4 (BDI_K57-E168)): 14 nM; Ki (BRD4 (BDII_E352-M457)): 5.7 nM

Question: Which results are given for `CCS(=O)(=O)Nc1cc(-c2cn(C)c(=O)c3[nH]ccc23)c(Oc2ccc(F)cc2F)cc1CN1CCCCC1` [Example 3, N-[4-(2,4-difluorophenoxy)-5-(6-methyl-7-oxo-6,7-dihydro-1H-pyrrolo[2,3-c]pyridin-4-yl)-2-(piperidin-1-ylmethyl)phenyl]ethanesulfonamide]?
Answer: Ki (BRD4 (BDI_K57-E168)): 88 nM; Ki (BRD4 (BDII_E352-M457)): 2.8 nM

Question: With `Cc1nnc(C)n1C1CCN(Cc2cc3c(-c4cc(S(C)(=O)=O)ccc4Oc4ccc(F)cc4F)cn(C)c(=O)c3[nH]2)CC1` [Example 128, 4-[2-(2,4-difluorophenoxy)-5-(methylsulfonyl)phenyl]-2-{[4-(3,5-dimethyl-4H-1,2,4-triazol-4-yl)piperidin-1-yl]methyl}-6-methyl-1,6-dihydro-7H-pyrrolo[2,3-c]pyridin-7-one] as the compound, how does the Ki (BRD4 (BDI_K57-E168)) read?
Answer: 47.8 nM

Question: And the Ki (BRD4 (BDII_E352-M457))?
Answer: 182 nM

From patent US9957263B2, “Bromodomain inhibitors” (AbbVie Inc., priority 2013, dated 2018)
